# Reference: PubChem BioAssay (NCI)
#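 These data come from cells grown in 96-well plates and exposed to compound for 48 hours at five concentrations. TGI denotes the concentration required for complete inhibition of growth.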
# Tested on: KM12 colon
# Assay: NCI anticancer screen, dose series, 48 h
row,SMILES,TGI [µM]
1,O=C(CC(c1ccccc1)N1CCCCC1)c1ccccc1 (stereo not given),22.6
2,O=C(c1ccccc1)c1c(-c2ccccc2)[nH]n(-c2ccc([N+](=O)[O-])cc2)c(=O)c1=O,> 100
3,CCN(CC)CCn1nc(N)c2nc3cc(Cl)ccc3nc21,> 100
4,Cc1ccc(S(=O)(=O)C2=Cc3ccc(C(F)(F)F)cc3C2(O)c2cccc(C(F)(F)F)c2)cc1 (stereo not given),4.53
5,Nc1nc(Cl)cc(NCCO)n1,> 100
6,COc1cccc(OC)c1/C=C1\OC(=O)c2cccc(OC)c21,> 100

# Tested on: NCI-H23 lung
# Assay: NCI anticancer screen, dose series, 48 h
row,SMILES,TGI [µM]
1,Cc1cn2c(=O)c3ccccc3nc2s1,> 100
2,O=C(CC(c1ccccc1)N1CCCCC1)c1ccccc1 (stereo not given),31.6
3,O=C(c1ccccc1)c1c(-c2ccccc2)[nH]n(-c2ccc([N+](=O)[O-])cc2)c(=O)c1=O,> 100
4,CCN(CC)CCn1nc(N)c2nc3cc(Cl)ccc3nc21,> 100
5,Cc1ccc(S(=O)(=O)C2=Cc3ccc(C(F)(F)F)cc3C2(O)c2cccc(C(F)(F)F)c2)cc1 (stereo not given),6.26
6,Nc1nc(Cl)cc(NCCO)n1,> 100
7,COc1cccc(OC)c1/C=C1\OC(=O)c2cccc(OC)c21,> 100

# Tested on: SK-MEL-28 melanoma
# Assay: NCI anticancer screen, dose series, 48 h
row,SMILES,TGI [µM]
1,Cc1cn2c(=O)c3ccccc3nc2s1,> 100
2,O=C(CC(c1ccccc1)N1CCCCC1)c1ccccc1 (stereo not given),32.4
3,O=C(c1ccccc1)c1c(-c2ccccc2)[nH]n(-c2ccc([N+](=O)[O-])cc2)c(=O)c1=O,> 100
4,CCN(CC)CCn1nc(N)c2nc3cc(Cl)ccc3nc21,> 100
5,Cc1ccc(S(=O)(=O)C2=Cc3ccc(C(F)(F)F)cc3C2(O)c2cccc(C(F)(F)F)c2)cc1 (stereo not given),3.75
6,Nc1nc(Cl)cc(NCCO)n1,> 100
7,COc1cccc(OC)c1/C=C1\OC(=O)c2cccc(OC)c21,> 100

# Tested on: HOP-62 NSCLC
# Assay: NCI anticancer screen, dose series, 48 h
row,SMILES,TGI [µM]
1,Cc1cn2c(=O)c3ccccc3nc2s1,> 100
2,O=C(CC(c1ccccc1)N1CCCCC1)c1ccccc1 (stereo not given),33.9
3,O=C(c1ccccc1)c1c(-c2ccccc2)[nH]n(-c2ccc([N+](=O)[O-])cc2)c(=O)c1=O,> 100
4,CCN(CC)CCn1nc(N)c2nc3cc(Cl)ccc3nc21,> 100
5,Cc1ccc(S(=O)(=O)C2=Cc3ccc(C(F)(F)F)cc3C2(O)c2cccc(C(F)(F)F)c2)cc1 (stereo not given),18.8
6,Nc1nc(Cl)cc(NCCO)n1,> 100
7,COc1cccc(OC)c1/C=C1\OC(=O)c2cccc(OC)c21,56

# Tested on: SF-295 CNS
# Assay: NCI anticancer screen, dose series, 48 h
row,SMILES,TGI [µM]
1,Cc1cn2c(=O)c3ccccc3nc2s1,> 100
2,O=C(CC(c1ccccc1)N1CCCCC1)c1ccccc1 (stereo not given),31.2
3,O=C(c1ccccc1)c1c(-c2ccccc2)[nH]n(-c2ccc([N+](=O)[O-])cc2)c(=O)c1=O,> 100
4,CCN(CC)CCn1nc(N)c2nc3cc(Cl)ccc3nc21,> 100
5,Cc1ccc(S(=O)(=O)C2=Cc3ccc(C(F)(F)F)cc3C2(O)c2cccc(C(F)(F)F)c2)cc1 (stereo not given),6.87
6,Nc1nc(Cl)cc(NCCO)n1,> 100
7,COc1cccc(OC)c1/C=C1\OC(=O)c2cccc(OC)c21,> 28.2

# Tested on: DLD-1 colon
# Assay: NCI anticancer screen, dose series, 48 h
row,SMILES,TGI [µM]
1,Cc1cn2c(=O)c3ccccc3nc2s1,> 100

# Tested on: HCC-2998 colon
# Assay: NCI anticancer screen, dose series, 48 h
row,SMILES,TGI [µM]
1,Cc1cn2c(=O)c3ccccc3nc2s1,> 100
2,O=C(CC(c1ccccc1)N1CCCCC1)c1ccccc1 (stereo not given),15.6
3,O=C(c1ccccc1)c1c(-c2ccccc2)[nH]n(-c2ccc([N+](=O)[O-])cc2)c(=O)c1=O,> 100
4,CCN(CC)CCn1nc(N)c2nc3cc(Cl)ccc3nc21,> 100
5,Cc1ccc(S(=O)(=O)C2=Cc3ccc(C(F)(F)F)cc3C2(O)c2cccc(C(F)(F)F)c2)cc1 (stereo not given),4.63
6,Nc1nc(Cl)cc(NCCO)n1,> 100
7,COc1cccc(OC)c1/C=C1\OC(=O)c2cccc(OC)c21,> 100

# Tested on: BT-549 breast
# Assay: NCI anticancer screen, dose series, 48 h
row,SMILES,TGI [µM]
1,O=C(CC(c1ccccc1)N1CCCCC1)c1ccccc1 (stereo not given),34.8
2,O=C(c1ccccc1)c1c(-c2ccccc2)[nH]n(-c2ccc([N+](=O)[O-])cc2)c(=O)c1=O,98.8
3,CCN(CC)CCn1nc(N)c2nc3cc(Cl)ccc3nc21,> 100
4,Cc1ccc(S(=O)(=O)C2=Cc3ccc(C(F)(F)F)cc3C2(O)c2cccc(C(F)(F)F)c2)cc1 (stereo not given),5.22
5,Nc1nc(Cl)cc(NCCO)n1,> 100
6,COc1cccc(OC)c1/C=C1\OC(=O)c2cccc(OC)c21,> 90.6

# Tested on: HCT-15 colon
# Assay: NCI anticancer screen, dose series, 48 h
row,SMILES,TGI [µM]
1,O=C(CC(c1ccccc1)N1CCCCC1)c1ccccc1 (stereo not given),36.6
2,O=C(c1ccccc1)c1c(-c2ccccc2)[nH]n(-c2ccc([N+](=O)[O-])cc2)c(=O)c1=O,> 100
